Key:
[1] = system: PD-1 wild-type tumors (primary CTCL); experiment: Inhibitor treatment of human cells in vitro, division index, PD-1 wild-type CTCL cells; assay type: cell-based; conditions: 2-DG 1 mM, everolimus 0.1 μM, BMS-303141 10 μM; 6 days; FIG. 7E
Procedure: (§1) FIGS. 7A-7H show ACLY dependency and AP-1 activation in human PDCD1 defective T-NHL. […] CNA, copy number aberrations. FIG. 7B GSEA for the indicated gene sets based on RNA-seq data from the 21 CTCL patients shown in (a). NES, normalized enrichment score; FDR, false discovery rate. […] P=one-way ANOVA and two-sided Student's t-test. Shown are the mean±SD and individual data points. […] FACS-sorted malignant cells were stimulated with anti-CD3/anti-CD28 beads, and 2-NBDG uptake was determined at the indicated time points. P=two-sided Student's t-test. Shown are the mean±SEM and individual data points. […] CFSE, carboxyfluorescein succinimidyl ester. P=two-sided Student's t-test. The data are presented as the mean±SEM and individual data points. […] Legend as in (5a). […] FIG. 7H GSEA for the indicated gene sets with RNA-seq data from 21 CTCL PDCD1mut” or “PDCD1 wt, and three patients with hyperprogression. NES, normalized enrichment score; FDR, false discovery rate. FIGS. 7A and 7B, Data from a single experiment with 21 patients. FIGS. 7C and 7D, Data from one experiment with three patients per group and three healthy donors. FIG. 7E, Data from one experiment with three patients and three healthy donors. FIGS. 7F and 7G, Data from one experiment with three patients per group. FIG. 7H, Data from a single experiment.
(§2) Isolation of primary human CTCL cells. This study was approved by the Northwestern University Institutional Review Board. Patients provided informed consent for inclusion in the study. […] The tumor burden for each patient was determined using well-validated clinical markers, taking whichever value was higher between Sezary cell counts or the CD26 negative cell number by clinical flow cytometry. These were analyzed in conjunction with white blood cell and absolute lymphocyte counts.
(§3) Inhibitor treatment of human cells in vitro Malignant CTCL cells and CD4^+ T cells from healthy donors were isolated as previously described. […] After 6 days, the cells were analyzed by flow cytometry, and the division index was determined using the FlowJo proliferation tool (v10.6, FlowJo LLC).

[2] = system: PDCD1-mutant lymphoma cells (primary CTCL); experiment: Inhibitor treatment of human cells in vitro, division index, PDCD1-mutant CTCL cells; assay type: cell-based; conditions: 2-DG 1 mM, everolimus 0.1 μM, BMS-303141 10 μM; anti-CD3/anti-CD28 beads, 6 days; FIG. 7E
Procedure: as §1, §2, §3

SMILES	response of stage-matched PD-1 wild-type tumors (relative division index) [1]	viability, division and proliferation of PDCD1-mutant cancer cells (relative division index) [2]
O=CC[C@@H](O)[C@H](O)[C@H](O)CO [2-DG, 2-deoxy-D-glucose]	resistant	significantly impaired cell proliferation
COc1ccc(-c2ccccc2)cc1NS(=O)(=O)c1cc(Cl)cc(Cl)c1O [BMS-303141]	resistant	significantly impaired cell proliferation

Source: patent publication US20240316012A1, “METHODS FOR TREATING LYMPHOMA” (Northwestern University, priority 2023, published 2024)
